For one compound, IC50 results are on record in ChEMBL document CHEMBL5726782, “N-pyrrolidinyl,N′-pyrazolyl-urea, thiourea, guanidine and cyanoguanidine compounds as TrkA kinase inhibitors” (2018).

This assay concerns the target High affinity nerve growth factor receptor (Homo sapiens, UniProt P04629). The assay can be described thus: Kinase Binding Assay: TrkA binding activity was determined in a TrkA LanthaScreen™ Eu Kinase Binding Assay. 5 nM His-tagged recombinant human TrkA (6HIS tagged cytoplasmic domain from Invitrogen, Catalog No. PV3144) was incubated with 4 nM Alexa-Fluor® Tracer 236 (Invitrogen Cat. No. PV5592), 2 nM biotinylated anti-His (Invitrogen Cat. No. PV6090), and 2 nM europium-labeled Streptavidin (Invitrogen Cat. No. PV5899), in buffer (25 mM MOPS, pH 7.5, 5 mM MgCl2, 0.005% Triton X-100). Three fold serial dilutions of compounds of the invention in DMSO were added to a final percentage of 2% DMSO. After 60-minute incubation at 22° C., the reaction was measured using the EnVision mutlimode plate reader (PerkinElmer) via TR-FRET dual wavelength detection at […]. The percent of control was calculated using a ratiometric emission factor.

A value given as a limit tells only on which side of the number the result lay.

High affinity nerve growth factor receptor, sequence (P04629 whole entry, the tested form may be a part): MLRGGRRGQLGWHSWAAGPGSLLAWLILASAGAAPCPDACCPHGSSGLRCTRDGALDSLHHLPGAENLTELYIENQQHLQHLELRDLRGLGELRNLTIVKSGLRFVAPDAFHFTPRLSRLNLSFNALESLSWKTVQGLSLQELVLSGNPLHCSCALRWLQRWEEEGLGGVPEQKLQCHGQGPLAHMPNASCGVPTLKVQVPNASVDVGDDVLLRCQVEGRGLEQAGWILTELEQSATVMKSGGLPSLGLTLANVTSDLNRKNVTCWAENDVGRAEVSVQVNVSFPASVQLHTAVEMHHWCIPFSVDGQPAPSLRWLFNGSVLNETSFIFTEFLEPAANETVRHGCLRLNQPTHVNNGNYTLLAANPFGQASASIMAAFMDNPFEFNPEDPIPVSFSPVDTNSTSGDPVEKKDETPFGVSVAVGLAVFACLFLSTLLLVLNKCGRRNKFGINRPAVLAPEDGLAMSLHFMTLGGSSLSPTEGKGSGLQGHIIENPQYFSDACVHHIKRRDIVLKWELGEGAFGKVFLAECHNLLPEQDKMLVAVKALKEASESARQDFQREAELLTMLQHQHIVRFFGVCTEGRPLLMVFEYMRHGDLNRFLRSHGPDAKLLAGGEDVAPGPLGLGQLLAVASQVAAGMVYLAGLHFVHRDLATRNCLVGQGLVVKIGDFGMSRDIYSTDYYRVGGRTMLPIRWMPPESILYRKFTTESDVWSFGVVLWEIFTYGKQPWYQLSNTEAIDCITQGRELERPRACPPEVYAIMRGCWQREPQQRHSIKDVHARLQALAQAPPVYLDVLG

A word on the IC50: it is the concentration needed to halve the response being measured. For the compound `COCCN1C[C@@H](NC(=O)Nc2c(C)c(-c3cncc(OC)c3)nn2-c2ccccc2)[C@H](c2ccc(F)c(F)c2)C1`, the half-maximal inhibitory concentration (IC50) is under 100 nM.
